Experimental data published in patent US20240408169A1 (priority 2023, published 2024).
Read-outs that look alike come from different tables or passages of the source. *1 amine or outer side, *2 acyl side, *3 side chain or, on linkers, in order; H or OH if unused. Where a SMILES comes first, the peptide text is derived from it. Bridges are numbered along the chain shown (N, C = ends). [ ]: non-standard residue; d: D form. The star is where a group is joined. X52 = CN1C[C@@H]2C[C@H]1CN2c1ccc(-c2ccc(Cl)cc2C[C@@H](C(=O)[*:2])N(C)[*:1])cc1; NMePhe(2-(4-MorPh),5-Cl) = CN[C@@H](Cc1cc(Cl)ccc1-c1ccc(N2CCOCC2)cc1)C(=O)O; X95 = CN1CCCC[C@H]1c1ccc(-c2ccc(Cl)cc2C[C@@H](C(=O)[*:2])N(C)[*:1])cc1; X71 = CN([C@@H](Cc1cc(Cl)ccc1-c1ccc(N2CCOCC2)c(F)c1)C(=O)[*:2])[*:1]; X32 = CN([C@@H](Cc1cc(Cl)ccc1-c1ccc(N2CCOCC2=O)cc1)C(=O)[*:2])[*:1]; X18 = CC(=O)N1CCC(=Cc2ccc(Cl)cc2C[C@@H](C(=O)[*:2])N(C)[*:1])CC1; X24 = CN([C@@H](Cc1cc(Cl)ccc1-c1cnn(C(C)(C)C)c1)C(=O)[*:2])[*:1]; X86 = CN([C@@H](Cc1cc(Cl)ccc1-c1cnn(C2CCOCC2)c1)C(=O)[*:2])[*:1]; X111 = CN([C@@H](Cc1cc(Cl)ccc1-c1nnc(C2CC2)o1)C(=O)[*:2])[*:1]; X68 = CN([C@@H](Cc1cc(Cl)ccc1-c1cnn(C2CC2)c1)C(=O)[*:2])[*:1]; NMehhhLys(Me) = CN([C@@H](CCCCCCCN(C)[*:3])C(=O)[*:2])[*:1]; X64 = CN([C@@H](Cc1cc(Cl)ccc1OC1(C)CC1)C(=O)[*:2])[*:1]; NMe(hhhLys) = CN([C@@H](CCCCCCCN[*:3])C(=O)[*:2])[*:1]; Oxane2carbonyl(2R-CF3) = O=C([C@@]1(C(F)(F)F)CCCCO1)*; Cyclobutanecarbonyl(1-CF3) = O=C(C1(C(F)(F)F)CCC1)*; cBuCO(3,3-F2-1-CF3) = O=C(C1(C(F)(F)F)CC(F)(F)C1)*; X25 = CCOc1ncc(Cl)cc1C[C@@H](C(=O)[*:2])N(C)[*:1]; Pro(trans-4-F) = O=C(O)[C@@H]1C[C@@H](F)CN1; Gly(cPr) = N[C@H](C(=O)O)C1CC1; X9 = C[C@@]1(C(=O)*)CC1(F)F

Legend:
[1] = test system: NCI-H1048 cells; assay: MTT proliferation assay, NCI-H1048; format: cell-based; settings: 5 days compound exposure, 1:3 serial dilution starting at 10 μM;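 note: Dose-response in 96-well plates over 8 or 10 concentration points, with exposure spanning 3-4 cell doublings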
[2] = test system: OVCAR3 cells; assay: MTT proliferation assay, OVCAR3; format: cell-based; settings: 5 days compound exposure, 1:3 serial dilution starting at 10 μM;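 note: compound given as an 8- or 10-point series, one day after plating, with exposure covering roughly 3-4 cell doublings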
[3] = test system: WI-38 cells; assay: MTT proliferation assay, WI-38; format: cell-based; settings: 3 days compound exposure, 1:3 serial dilution starting at 10 μM;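 note: Eight- or ten-point dilution series, with exposure length chosen to span about three to four cell doublings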
[4] = molecular target: T1, CyclinE1/CDK2 (Homo sapiens, UniProt P24864); assay: Fluorescence Polarization (FP) competitive binding assay, Cyclin E1/Cdk2;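 note: readings taken after two-hour equilibration at room temperature in HEPES buffer with NaCl, DTT, NP-40 and BSA, IC50 fitted from eight-concentration serial dilution series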
T1 construct: purchased Eurofins, discovery 14-475

[5] = molecular target: T2, CyclinB1/CDK1 (Homo sapiens, UniProt P14635); assay: Fluorescence Polarization (FP) competitive binding assay, Cyclin B1/Cdk1;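 note: fluorescence polarization read after equilibration at room temperature, with IC50 taken from serially diluted dose-response curves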
T2 construct: purchased Eurofins, discovery 14-450

[6] = molecular target: T3, CyclinA2/CDK2 (Homo sapiens, UniProt P20248); assay: Fluorescence Polarization (FP) competitive binding assay, Cyclin A2/Cdk2;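 note: plates equilibrated two hours at room temperature before polarization reading, IC50 fitted from eight-concentration compound titration curves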
T3 construct: purchased CRELUX Protein Services

[7] = 10 nM Cyclin E1/Cdk2, 2 nM FAM probe, average of 2-3 independent experiments, read-out: Cyclin E FP IC50
[8] = 10 nM Cyclin B1/Cdk1, 2 nM FAM probe; average of 2-3 independent experiments; read-out: Cyclin B FP IC50
[9] = 8 nM Cyclin A2/Cdk2, 2 nM FAM probe; average of 2-3 independent experiments; read-out: Cyclin A FP IC50
[10] = read-out: Cyclin B FP IC50; 10 nM Cyclin B1/Cdk1, 2 nM FAM probe; average of 2-3 independent experiments
[11] = read-out: Cyclin A FP IC50; 8 nM Cyclin A2/Cdk2, 2 nM FAM probe; average of 2-3 independent experiments

SMILES	GI50 [1]	GI50 [2]	GI50 [3]	IC50 [4, 7]	IC50 [5, 8]	IC50 [6, 9]	IC50 [4]	IC50 [5, 10]	IC50 [6, 11]
CC(C)C[C@@H]1NC(=O)[C@@H](N(C)C(=O)[C@@H](NC(=O)[C@@H]2C[C@@H](F)CN2C(=O)C2(C(F)(F)F)CC(F)(F)C2)C2CC2)CC=CCCCCNC(=O)[C@H](Cc2cc(Cl)ccc2-c2cnn(C3COC3)c2)N(C)C1=O [Example 27]	90 nM	370 nM	11400 nM	1900 nM	20 nM	90 nM	–	–	–
CC(C)C[C@@H]1NC(=O)[C@@H](N(C)C(=O)[C@@H](NC(=O)[C@@H]2C[C@@H](F)CN2C(=O)C2(C(F)(F)F)CC(F)(F)C2)C2CC2)CCCCCCCN(C)C(=O)[C@H](Cc2cc(Cl)ccc2-c2cnn(C(C)(C)C)c2)N(C)C1=O [Example 187] ({cBuCO(3,3-F2-1-CF3)}-[Pro(trans-4-F)][Gly(cPr)][NMehhhLys(Me)]L[X24]; lactam 3-C)	10 nM	10 nM	8660 nM	340 nM	20 nM	20 nM	–	–	–
CC(C)C[C@@H]1NC(=O)[C@@H](N(C)C(=O)[C@@H](NC(=O)[C@@H]2C[C@@H](F)CN2C(=O)C2(C(F)(F)F)CC(F)(F)C2)C2CC2)CCCCCCCN(C)C(=O)[C@H](Cc2cc(Cl)ccc2-c2nnc(C3CC3)o2)N(C)C1=O [Example 240] ({cBuCO(3,3-F2-1-CF3)}-[Pro(trans-4-F)][Gly(cPr)][NMehhhLys(Me)]L[X111]; lactam 3-C)	10 nM	10 nM	8730 nM	–	–	–	140 nM	20 nM	20 nM
CC(=O)N1CCC(=Cc2ccc(Cl)cc2C[C@H]2C(=O)NCCCCCCC[C@H](N(C)C(=O)[C@@H](NC(=O)[C@@H]3C[C@@H](F)CN3C(=O)C3(C(F)(F)F)CC(F)(F)C3)C3CC3)C(=O)N[C@@H](CC(C)C)C(=O)N2C)CC1 [Example 288] ({cBuCO(3,3-F2-1-CF3)}-[Pro(trans-4-F)][Gly(cPr)][NMe(hhhLys)]L[X18]; lactam 3-C)	20 nM	20 nM	13800 nM	360 nM	20 nM	30 nM	–	–	–
CC(C)C[C@@H]1NC(=O)[C@@H](N(C)C(=O)[C@@H](NC(=O)[C@@H]2C[C@@H](F)CN2C(=O)C2(C(F)(F)F)CC(F)(F)C2)C2CC2)CCCCCCCN(C)C(=O)[C@H](Cc2cc(Cl)ccc2-c2cnn(C3CCOCC3)c2)N(C)C1=O [Example 114] ({cBuCO(3,3-F2-1-CF3)}-[Pro(trans-4-F)][Gly(cPr)][NMehhhLys(Me)]L[X86]; lactam 3-C)	10 nM	10 nM	7190 nM	400 nM	20 nM	20 nM	–	–	–
CC(C)C[C@@H]1NC(=O)[C@@H](N(C)C(=O)[C@@H](NC(=O)[C@@H]2C[C@@H](F)CN2C(=O)C2(C(F)(F)F)CC(F)(F)C2)C2CC2)CCCCCCCN(C)C(=O)[C@H](Cc2cc(Cl)ccc2-c2ccc(N3CCOCC3=O)cc2)N(C)C1=O [Example 408] ({cBuCO(3,3-F2-1-CF3)}-[Pro(trans-4-F)][Gly(cPr)][NMehhhLys(Me)]L[X32]; lactam 3-C)	10 nM	10 nM	5530 nM	510 nM	20 nM	20 nM	–	–	–
CC(C)C[C@@H]1NC(=O)[C@@H](N(C)C(=O)[C@@H](NC(=O)[C@@H]2C[C@@H](F)CN2C(=O)C2(C(F)(F)F)CCC2)C2CC2)CC=CCCCCN(C)C(=O)[C@H](Cc2cc(Cl)cnc2OC2CC2)N(C)C1=O [Example 106]	410 nM	540 nM	6390 nM	240 nM	20 nM	120 nM	–	–	–
CC(C)C[C@@H]1NC(=O)[C@@H](N(C)C(=O)[C@@H](NC(=O)[C@@H]2C[C@@H](F)CN2C(=O)C2(C(F)(F)F)CCC2)C2CC2)CCCCCCCNC(=O)[C@H](Cc2cc(Cl)ccc2-c2cnn(C3CC3)c2)N(C)C1=O [Example 188] ({Cyclobutanecarbonyl(1-CF3)}-[Pro(trans-4-F)][Gly(cPr)][NMe(hhhLys)]L[X68]; lactam 3-C)	10 nM	20 nM	3080 nM	230 nM	20 nM	20 nM	–	–	–
CC(C)C[C@@H]1NC(=O)[C@@H](N(C)C(=O)[C@@H](NC(=O)[C@@H]2C[C@@H](F)CN2C(=O)C2(C(F)(F)F)CC(F)(F)C2)C2CC2)CCCCCCCN(C)C(=O)[C@H](Cc2cc(Cl)ccc2-c2ccc(N3C[C@@H]4C[C@H]3CN4C)cc2)N(C)C1=O [Example 357] ({cBuCO(3,3-F2-1-CF3)}-[Pro(trans-4-F)][Gly(cPr)][NMehhhLys(Me)]L[X52]; lactam 3-C)	20 nM	50 nM	3140 nM	1970 nM	20 nM	30 nM	–	–	–
CC(C)C[C@@H]1NC(=O)[C@@H](N(C)C(=O)[C@@H](NC(=O)[C@@H]2C[C@@H](F)CN2C(=O)C2(C(F)(F)F)CC(F)(F)C2)C2CC2)CCCCCCCN(C)C(=O)[C@H](Cc2cc(Cl)ccc2-c2ccc(N3CCOCC3)c(F)c2)N(C)C1=O [Example 348] ({cBuCO(3,3-F2-1-CF3)}-[Pro(trans-4-F)][Gly(cPr)][NMehhhLys(Me)]L[X71]; lactam 3-C)	10 nM	10 nM	18000 nM	880 nM	20 nM	20 nM	–	–	–
CC(C)C[C@@H]1NC(=O)[C@@H](N(C)C(=O)[C@@H](NC(=O)[C@@H]2C[C@@H](F)CN2C(=O)C2(C(F)(F)F)CC(F)(F)C2)C2CC2)CCCCCCCN(C)C(=O)[C@H](Cc2cc(Cl)ccc2-c2ccc([C@@H]3CCCCN3C)cc2)N(C)C1=O [Example 417] ({cBuCO(3,3-F2-1-CF3)}-[Pro(trans-4-F)][Gly(cPr)][NMehhhLys(Me)]L[X95]; lactam 3-C)	10 nM	10 nM	1160 nM	2650 nM	20 nM	30 nM	–	–	–
CC(C)C[C@@H]1NC(=O)[C@@H](N(C)C(=O)[C@@H](NC(=O)[C@@H]2C[C@@H](F)CN2C(=O)C2(C(F)(F)F)CCC2)C2CC2)CC=CCCCCN(C)C(=O)[C@H](Cc2cc(Cl)ccc2-c2cnn(C3CC3)c2)N(C)C1=O [Example 81]	40 nM	50 nM	4300 nM	300 nM	20 nM	40 nM	–	–	–
CC(C)C[C@@H]1NC(=O)[C@@H](N(C)C(=O)[C@@H](NC(=O)[C@@H]2C[C@@H](F)CN2C(=O)[C@]2(C)CC2(F)F)C2CC2)CCCCCCCN(C)C(=O)[C@H](Cc2cc(Cl)ccc2-c2ccc(N3CCOCC3)cc2)N(C)C1=O [Example 399] (X9-[Pro(trans-4-F)][Gly(cPr)][NMehhhLys(Me)]L[NMePhe(2-(4-MorPh),5-Cl)]; lactam 3-C)	220 nM	110 nM	3650 nM	3000 nM	20 nM	70 nM	–	–	–
CC(C)C[C@@H]1NC(=O)[C@@H](N(C)C(=O)[C@@H](NC(=O)[C@@H]2C[C@@H](F)CN2C(=O)C2(C(F)(F)F)CC(F)(F)C2)C2CC2)CCCCCCCN(C)C(=O)[C@H](Cc2cc(Cl)ccc2OC2(C)CC2)N(C)C1=O [Example 259] ({cBuCO(3,3-F2-1-CF3)}-[Pro(trans-4-F)][Gly(cPr)][NMehhhLys(Me)]L[X64]; lactam 3-C)	110 nM	110 nM	10400 nM	280 nM	20 nM	70 nM	–	–	–
CC(C)C[C@@H]1NC(=O)[C@@H](N(C)C(=O)[C@@H](NC(=O)[C@@H]2N[C@@H](F)CC2C(=O)C2(C(F)(F)F)CC(F)(F)C2)C2CC2)CC=CCCCCN(C)C(=O)[C@H](Cc2cc(Cl)cnc2OC(C)C)N(C)C1=O (stereo partly drawn) [Example 130]	700 nM	1550 nM	8990 nM	310 nM	20 nM	70 nM	–	–	–
CC(C)C[C@@H]1NC(=O)[C@@H](N(C)C(=O)[C@@H](NC(=O)[C@@H]2C[C@@H](F)CN2C(=O)C2(C(F)(F)F)CC(F)(F)C2)C2CC2)CCCCCCCN(C)C(=O)[C@H](Cc2cc(Cl)ccc2-c2cnn(C3CC3)c2)N(C)C1=O [Example 110] ({cBuCO(3,3-F2-1-CF3)}-[Pro(trans-4-F)][Gly(cPr)][NMehhhLys(Me)]L[X68]; lactam 3-C)	10 nM	10 nM	4800 nM	330 nM	20 nM	20 nM	–	–	–
[2H]C([2H])([2H])n1cc(-c2ccc(Cl)cc2C[C@H]2C(=O)N(C)CCCCCCC[C@H](N(C)C(=O)[C@@H](NC(=O)[C@@H]3C[C@@H](F)CN3C(=O)C3(C(F)(F)F)CC(F)(F)C3)C3CC3)C(=O)N[C@@H](CC(C)C)C(=O)N2C)cn1 [Example 239]	20 nM	20 nM	14300 nM	420 nM	20 nM	20 nM	–	–	–
CCOc1ncc(Cl)cc1C[C@H]1C(=O)N(C)CCCCCCC[C@H](N(C)C(=O)[C@@H](NC(=O)[C@@H]2C[C@@H](F)CN2C(=O)[C@@]2(C(F)(F)F)CCCCO2)C2CC2)C(=O)N[C@@H](CC(C)C)C(=O)N1C [Example 226] ({Oxane2carbonyl(2R-CF3)}-[Pro(trans-4-F)][Gly(cPr)][NMehhhLys(Me)]L[X25]; lactam 3-C)	20 nM	30 nM	8390 nM	–	–	–	100 nM	20 nM	20 nM
